# Experimental data as given in patent US20020035061A1, “COMPOSITIONS AND METHODS FOR TREATING INFECTIONS USING CATIONIC PEPTIDES ALONE OR IN COMBINATION WITH ANTIBIOTICS” (priority 1996, published 2002).
# Like-named read-outs stand apart in the source and are kept apart here.
# What was measured:
# Format in all cases: cell-based
# [1] = tested on: bacterial isolates; assay: microbe, parasite or virus in culture
# [2] = tested on: various bacterial strains; assay: Broth dilution assay (MIC)
# Protocol: Typically 100 μl of calcium and magnesium supplemented Mueller Hinton broth is dispensed into each well of a 96-well microtitre plate and 100 μl volumes of two-fold serial dilutions of the peptide are prepared across the plate. One row of wells receives no peptide and is used as a growth control. Each well is inoculated with approximately 5×10^5 CFU of bacteria and the plate is incubated at 35-37° C. for 16-20 hours.
# For example, MIC values in μg/ml are established by broth dilution assay (Table 13) or by agarose dilution assay (Table 14) for a series of cationic peptides against various bacterial strains.
# [3] = tested on: P. mirabilis; assay: Agarose dilution assay (MIC)
# [4] = tested on: S. maltophilia
# [5] = P. aeruginosa 23, Piperacillin section
# [6] = S. aureus 19 MRSA, Piperacillin section
# [7] = peptide + Piperacillin, P. aeruginosa 23
# [8] = peptide + Piperacillin, S. aureus 19 MRSA
sequence,measurement,setting,value
ILKKWPWWPWRRK [MBI 11CN],Peptide MIC + Tobramycin,[1]; A. baumannii ABI001,16 µg/mL
same,Tobramycin MIC + Peptide,[1]; A. baumannii ABI001,4 µg/mL
same,Peptide MIC Alone,"[1]; A. baumannii ABI001, Tobramycin section",64 µg/mL
same,Peptide MIC + Tobramycin,[1]; E. coli ECO006,0.25 µg/mL
same,Tobramycin MIC + Peptide,[1]; E. coli ECO006,4 µg/mL
same,Peptide MIC Alone,"[1]; E. coli ECO006, Tobramycin section",8 µg/mL
same,Peptide MIC + Piperacillin,[1]; P. aeruginosa 22,32 µg/mL
same,Piperacillin MIC + Peptide,[1]; P. aeruginosa 22,4 µg/mL
same,Peptide MIC Alone,"[1]; P. aeruginosa 22, Piperacillin section",64 µg/mL
same,Peptide MIC + Piperacillin,[1]; P. aeruginosa 23,4 µg/mL
same,Piperacillin MIC + Peptide,[1]; P. aeruginosa 23,64 µg/mL
same,Peptide MIC Alone,[1]; [5],128 µg/mL
same,Peptide MIC + Tobramycin,[1]; P. aeruginosa PA032,4 µg/mL
same,Tobramycin MIC + Peptide,[1]; P. aeruginosa PA032,8 µg/mL
same,Peptide MIC Alone,"[1]; P. aeruginosa PA032, Tobramycin section",>128 µg/mL
same,Peptide MIC + Piperacillin,[1]; S. aureus 18 MRSA,16 µg/mL
same,Piperacillin MIC + Peptide,[1]; S. aureus 18 MRSA,0.5 µg/mL
same,Peptide MIC Alone,"[1]; S. aureus 18 MRSA, Piperacillin section",32 µg/mL
same,Peptide MIC + Piperacillin,[1]; S. aureus 19 MRSA,1 µg/mL
same,Piperacillin MIC + Peptide,[1]; S. aureus 19 MRSA,64 µg/mL
same,Peptide MIC Alone,[1]; [6],8 µg/mL
same,Peptide MIC + Tobramycin,[1]; S. maltophilia SMA029,2 µg/mL
same,Tobramycin MIC + Peptide,[1]; S. maltophilia SMA029,64 µg/mL
same,Peptide MIC Alone,"[1]; S. maltophilia SMA029, Tobramycin section",>128 µg/mL
same,Peptide MIC + Tobramycin,[1]; S. maltophilia SMA035,32 µg/mL
same,Tobramycin MIC + Peptide,[1]; S. maltophilia SMA035,4 µg/mL
same,Peptide MIC Alone,"[1]; S. maltophilia SMA035, Tobramycin section",128 µg/mL
same,FIC,"[1]; peptide + Piperacillin, P. aeruginosa 22",0.52
same,FIC,[1]; [7],0.53
same,FIC,"[1]; peptide + Piperacillin, S. aureus 18 MRSA",0.50
same,FIC,[1]; [8],0.38
same,FIC,"[1]; peptide + Tobramycin, A. baumannii ABI001",0.50
same,FIC,"[1]; peptide + Tobramycin, E. coli ECO006",0.53
same,FIC,"[1]; peptide + Tobramycin, P. aeruginosa PA032",0.52
same,FIC,"[1]; peptide + Tobramycin, S. maltophilia SMA029",0.51
same,FIC,"[1]; peptide + Tobramycin, S. maltophilia SMA035",0.38
same,MIC,[2]; A. calcoaceticus 8191,256 µg/mL
same,MIC,[2]; E. cloacae 13047,>128 µg/mL
same,MIC,[2]; E. coli 25922,128 µg/mL
same,MIC,[2]; E. coli DH1,64 µg/mL
same,MIC,[2]; E. coli ECO003,64 µg/mL
same,MIC,[2]; E. coli KL4,64 µg/mL
same,MIC,[2]; E. faecalis 29212,64 µg/mL
same,MIC,[2]; K. pneumoniae 13883,>128 µg/mL
same,MIC,[2]; K. pneumoniae B44,64 µg/mL
same,MIC,[2]; P. aeruginosa 27853,>128 µg/mL
same,MIC,[2]; P. aeruginosa 8509041,256 µg/mL
same,MIC,[2]; P. aeruginosa 9308077,128 µg/mL
same,MIC,[2]; P. aeruginosa 9503024,>256 µg/mL
same,MIC,[2]; P. aeruginosa H650,256 µg/mL
same,MIC,[2]; P. aeruginosa H652,256 µg/mL
same,MIC,[2]; S. aureus 25923,32 µg/mL
same,MIC,[2]; S. aureus 27217,64 µg/mL
same,MIC,[2]; S. aureus 29213,32 µg/mL
same,MIC,[2]; S. aureus 33593,64 µg/mL
same,MIC,[2]; S. aureus 8402093,32 µg/mL
same,MIC,[2]; S. aureus 8809014,32 µg/mL
same,MIC,[2]; S. aureus 8809025,64 µg/mL
same,MIC,[2]; S. epidermidis 14990,8 µg/mL
same,MIC,[2]; S. maltophilia 13637,128 µg/mL
same,MIC,[2]; S. maltophilia H361,64 µg/mL
same,MIC,[2]; S. marcescens 13880,>128 µg/mL
same,MIC,[2]; S. marcescens B21,>256 µg/mL
same,MIC,[3]; P. mirabilis PM002,>128 µg/mL
same,MIC,[4]; S. maltophilia SMA001,64 µg/mL
ILRWPWWPWRRK [MBI 11B7CN],Peptide MIC Alone,"[1]; 2. Ceftriaxone, A. baumannii ABI002",32 µg/mL
same,Peptide MIC Alone,"[1]; 2. Ceftriaxone, A. baumannii ABI006",32 µg/mL
same,Peptide MIC Alone,"[1]; 2. Ceftriaxone, B. cepacia BC003",>128 µg/mL
same,Peptide MIC Alone,"[1]; 2. Ceftriaxone, P. aeruginosa PA008",128 µg/mL
same,Peptide MIC Alone,"[1]; 2. Ceftriaxone, P. aeruginosa PA024",>128 µg/mL
same,Peptide MIC Alone,"[1]; 2. Ceftriaxone, S. maltophilia SMA020",16 µg/mL
same,Peptide MIC Alone,"[1]; 2. Ceftriaxone, S. maltophilia SMA021",32 µg/mL
same,Peptide MIC Alone,"[1]; 2. Ceftriaxone, S. maltophilia SMA023",128 µg/mL
same,Ceftriaxone MIC + Peptide,[1]; A. baumannii ABI002,8 µg/mL
same,Peptide MIC + Ceftriaxone,[1]; A. baumannii ABI002,8 µg/mL
same,Ceftriaxone MIC + Peptide,[1]; A. baumannii ABI006,16 µg/mL
same,Ceftriaxone MIC + Peptide,[1]; B. cepacia BC003,16 µg/mL
same,Peptide MIC + Piperacillin,[1]; E. cloacae 6,16 µg/mL
same,Piperacillin MIC + Peptide,[1]; E. cloacae 6,16 µg/mL
same,Peptide MIC Alone,"[1]; E. cloacae 6, Piperacillin section",32 µg/mL
same,Peptide MIC + Piperacillin,[1]; E. cloacae 9,16 µg/mL
same,Piperacillin MIC + Peptide,[1]; E. cloacae 9,1 µg/mL
same,Peptide MIC Alone,"[1]; E. cloacae 9, Piperacillin section",32 µg/mL
same,Peptide MIC + Piperacillin,[1]; E. cloacae 10,16 µg/mL
same,Piperacillin MIC + Peptide,[1]; E. cloacae 10,0.5 µg/mL
same,Peptide MIC Alone,"[1]; E. cloacae 10, Piperacillin section",32 µg/mL
same,Peptide MIC + Piperacillin,[1]; H. influenzae 1,0.125 µg/mL
same,Piperacillin MIC + Peptide,[1]; H. influenzae 1,32 µg/mL
same,Peptide MIC Alone,"[1]; H. influenzae 1, Piperacillin section",>128 µg/mL
same,Peptide MIC + Piperacillin,[1]; H. influenzae SB1,0.125 µg/mL
same,Piperacillin MIC + Peptide,[1]; H. influenzae SB1,0.25 µg/mL
same,Peptide MIC Alone,"[1]; H. influenzae SB1, Piperacillin section",>128 µg/mL
same,Peptide MIC + Piperacillin,[1]; P. aeruginosa 23,64 µg/mL
same,Piperacillin MIC + Peptide,[1]; P. aeruginosa 23,2 µg/mL
same,Peptide MIC Alone,[1]; [5],128 µg/mL
same,Ceftriaxone MIC + Peptide,[1]; P. aeruginosa PA008,16 µg/mL
same,Peptide MIC + Ceftriaxone,[1]; P. aeruginosa PA008,16 µg/mL
same,Ceftriaxone MIC + Peptide,[1]; P. aeruginosa PA024,32 µg/mL
same,Peptide MIC + Ceftriaxone,[1]; P. aeruginosa PA024,0.125 µg/mL
same,Peptide MIC + Piperacillin,[1]; S. aureus 19 MRSA,1 µg/mL
same,Piperacillin MIC + Peptide,[1]; S. aureus 19 MRSA,32 µg/mL
same,Peptide MIC Alone,[1]; [6],4 µg/mL
same,Peptide MIC + Piperacillin,[1]; S. maltophilia 5,64 µg/mL
same,Piperacillin MIC + Peptide,[1]; S. maltophilia 5,64 µg/mL
same,Peptide MIC Alone,"[1]; S. maltophilia 5, Piperacillin section",>128 µg/mL
same,Peptide MIC + Piperacillin,[1]; S. maltophilia 9,64 µg/mL
same,Piperacillin MIC + Peptide,[1]; S. maltophilia 9,64 µg/mL
same,Peptide MIC Alone,"[1]; S. maltophilia 9, Piperacillin section",>128 µg/mL
same,Peptide MIC + Piperacillin,[1]; S. maltophilia 11,32 µg/mL
same,Piperacillin MIC + Peptide,[1]; S. maltophilia 11,64 µg/mL
same,Peptide MIC Alone,"[1]; S. maltophilia 11, Piperacillin section",>128 µg/mL
same,Ceftriaxone MIC + Peptide,[1]; S. maltophilia SMA020,64 µg/mL
same,Peptide MIC + Ceftriaxone,[1]; S. maltophilia SMA020,8 µg/mL
same,Ceftriaxone MIC + Peptide,[1]; S. maltophilia SMA021,64 µg/mL
same,Peptide MIC + Ceftriaxone,[1]; S. maltophilia SMA021,8 µg/mL
same,Ceftriaxone MIC + Peptide,[1]; S. maltophilia SMA023,32 µg/mL
same,Peptide MIC + Ceftriaxone,[1]; S. maltophilia SMA023,16 µg/mL
same,Peptide MIC + Piperacillin,[1]; S. marcescens 1,4 µg/mL
same,Piperacillin MIC + Peptide,[1]; S. marcescens 1,8 µg/mL
same,Peptide MIC Alone,"[1]; S. marcescens 1, Piperacillin section",>128 µg/mL
same,FIC,"[1]; peptide + Ceftriaxone, A. baumannii ABI002",0.50
same,FIC,"[1]; peptide + Ceftriaxone, A. baumannii ABI006",0.25
same,FIC,"[1]; peptide + Ceftriaxone, B. cepacia BC003",0.52
same,FIC,"[1]; peptide + Ceftriaxone, P. aeruginosa PA008",0.25
same,FIC,"[1]; peptide + Ceftriaxone, P. aeruginosa PA024",0.50
same,FIC,"[1]; peptide + Ceftriaxone, S. maltophilia SMA020",0.75
same,FIC,"[1]; peptide + Ceftriaxone, S. maltophilia SMA021",0.50
same,FIC,"[1]; peptide + Ceftriaxone, S. maltophilia SMA023",0.38
same,FIC,"[1]; peptide + Piperacillin, E. cloacae 6",0.56
same,FIC,"[1]; peptide + Piperacillin, E. cloacae 9",0.50
same,FIC,"[1]; peptide + Piperacillin, E. cloacae 10",0.50
same,FIC,"[1]; peptide + Piperacillin, H. influenzae 1",0.50
same,FIC,"[1]; peptide + Piperacillin, H. influenzae SB1",0.50
same,FIC,[1]; [7],0.56
same,FIC,[1]; [8],0.50
same,FIC,"[1]; peptide + Piperacillin, S. maltophilia 5",0.50
same,FIC,"[1]; peptide + Piperacillin, S. maltophilia 9",0.50
same,FIC,"[1]; peptide + Piperacillin, S. maltophilia 11",0.38
same,FIC,"[1]; peptide + Piperacillin, S. marcescens 1",0.27
same,MIC,[3]; P. mirabilis strain PM002,>128 µg/mL
same,"MIC, Peptide","[4]; S. maltophilia SMA002, unmodified parent peptide",16 µg/mL
same,MIC,[4]; S. maltophilia strain SMA004,128 µg/mL
